The source made the active and inactive calls. The rule behind the calls is not given here.

One test has as its target Ras-related C3 botulinum toxin substrate 1 (Homo sapiens) (UniProt P63000). Put plainly: wildtype Rac1 GTP binding inhibitors, SAR follow-up, biochemical, additional analogs, multiplex bead flow cytometry (AID 2040).
Settings: not given
With `O=C1N=c2ccccc2=C1c1[nH]c(=S)[nH]c1O`, the EC50 (in general, the concentration at which the effect is half-maximal) was “inactive”.
Same read-out and setting: then `O=C1C(c2c(O)[nH]c3c(F)cccc23)=Nc2ccccc21`, with “inactive”; and `O=C1C(c2c(O)[nH]c3c(Cl)cccc23)=Nc2ccccc21`, with > 30 µM (inactive).
Consider `O=Nc1c(-c2c(O)[nH]c3c(Cl)cccc23)[nH]c2ccccc12`, for which the EC50 was > 30 µM (inactive).
Take `O=C1C(c2c(O)[nH]c3ccccc23)=Nc2ccccc21`: the EC50 is > 30 µM (inactive).
Consider `O=C1C(c2c(O)[nH]c3c(Br)cccc23)=Nc2ccccc21`, for which the EC50 is > 30 µM (inactive).
Regarding `O=Nc1c(-c2c(O)[nH]c3c(F)cccc23)[nH]c2ccccc12`, the EC50 was > 30 µM (inactive).
In the case of `O=C1N=c2ccccc2=C1c1[nH]c(=O)[nH]c1O`, the EC50 entry was “inactive”.
As to `O=C1C(c2c(O)[nH]c3ccc(Br)cc23)=Nc2ccccc21`, the EC50 entry was “inactive”.
In the case of `O=Nc1c(-c2c(O)[nH]c3c(Br)cccc23)[nH]c2ccccc12`, the EC50 was > 30 µM (inactive).
For `O=Nc1c(-c2c(O)[nH]c3ccc(Br)cc23)[nH]c2ccccc12`, the EC50 is > 30 µM (inactive).
On the same count and under the same terms, then `O=Nc1c(-c2c(O)[nH]c3ccccc23)[nH]c2ccccc12`, with > 30 µM (inactive).

Staying with this test, now noted: measured here: Ki derived from EC50.
In the case of `O=C1N=c2ccccc2=C1c1[nH]c(=S)[nH]c1O`, the inhibition constant (Ki) (commonly the dissociation constant of the complex between target and ligand, obtained from inhibition or displacement) is 0.16 µM.
The same measure, in the same setting: then `O=C1C(c2c(O)[nH]c3c(F)cccc23)=Nc2ccccc21`, with 3.23 µM; and `COc1cc(-c2c(C#N)c(N)n(S(=O)(=O)c3c(C(C)C)cc(C(C)C)cc3C(C)C)c2C(=O)c2ccccc2)cc(OC)c1OC`, with 7.04 µM; and `COc1ccc(S(=O)(=O)n2c(N)c(C#N)c(-c3cncc(Br)c3)c2C(=O)c2ccccc2)cc1`, with 0.92 µM.
Still for that read-out and setting: then `O=C1Nc2cccc(Br)c2/C1=C1/Cc2ccccc2C1=O`, with 1.13 µM; and `CSc1ccc(/C=C2/C(C)=C(CC(=O)O)c3cc(F)ccc32)cc1`, with 5.11 µM; and `O=C1N=c2ccccc2=C1c1[nH]c(=O)[nH]c1O`, with 0.25 µM.
With `O=C1C(c2c(O)[nH]c3ccc(Br)cc23)=Nc2ccccc21`, the Ki was found to be 1.51 µM. Compared with the last molecule, the Ki is about 6-fold higher.

For the origin of these results see PubChem BioAssay AID2040 (NMMLSC, 2009).
